Entries after “also recorded” stand apart in the source; their conditions may differ.
What was measured:
Assay type in all cases: cell-based, monkey
[1] = system: CRP2 nuclear localization in CV1 cells; assay: Indirect immunofluorescence of V5 epitope-tagged CRP2 localization in transfected CV1 cells; conditions: for CRP2 accumulation in the nucleus: after one hour of treatment; for CRP2 accumulation / localization in the nucleus: summary statement, no concentration given; for Nuclear localization of epitope-tagged CRP2: cytochalasin D 5 μg/ml, latrunculin B not shown
Experimental: (§1) FIGS. 9A-9B show signaling mechanisms involved in CRP2 nuclear localization. In FIG. 9A, there is indirect immunofluorescent analysis of V5 epitope-tagged CRP2 (green) in CV1 cells. Untreated control CV1 cells show global localization of CRP2. […] Fold-activation was determined by comparison to the transfection with empty expression vector in lane 1.
In CV1 fibroblasts, overexpressed wild type CRP2 localizes both in the nucleus and in the cytoplasmic compartments, similar to the subcellular distribution pattern of endogenous CRP2 (Chang et al., 2003). When NLS- or NES-tag is added, the fusion CRP2-NLS or CRP2-NES protein becomes over 90% nuclear- or cytoplasmic-exclusive localized, respectively (FIG. 8A). These reagents allow functional analyses to differentiate nuclear versus cytoplasmic functions of CRP2. […] Nuclear distribution of CRP2 is coincident with reporter gene activation.
(§2) To elucidate the mechanism controlling CRP2 shuttling, the inventors treated transiently transfected monkey CV1 fibroblasts with drugs that either affect cytoskeletal integrity ([…], cytochalasin D, latrunculin B) or are inhibitors of nuclear export (leptomycin B) and looked for changes in the distribution of CRP2.

[2] = system: SMA promoter; assay: SMA-luciferase reporter transactivation assay in CV1 cells; conditions: CV1 cells cotransfected with CRP2, SRF and GATA6, drug added 12 h after cotransfection, lysates 6-24 h post-drug
[3] = system: SM22α promoter; assay: SM22α promoter luciferase reporter assay in CV1 cells
[4] = system: actin cytoskeleton; assay: Actin cytoskeleton integrity in CV1 cells (rhodamine phalloidin)
Experimental: as §1, §2

Compound | cells with CRP2 nuclear localization ([1]; 10 μM in growth medium of transfected CV1 fibroblasts) | CRP2 accumulation in the nucleus [1] | CRP2 accumulation / localization in the nucleus [1] | SMA gene activation / SMA-Luc reporter activity after drug treatment [2] | SMA gene activation / SMA-Luc reporter activity after drug treatment ([2]; listed as Y-26732) | SM22α promoter activity after drug treatment [3] | Nuclear localization of epitope-tagged CRP2 [1] | dissolution of the actin cytoskeleton [4] | transfected CV1 cells displaying CRP2 accumulation in the nucleus ([1]; 2 hr of 10 μg/ml treatment)
C[C@@H](N)[C@H]1CC[C@H](C(=O)Nc2ccncc2)CC1 [Y-27632] | 68% | accumulate in the nucleus | facilitated CRP2 nuclear localization | further upregulates; also recorded: further up-regulated | increases | further up-regulated | – | – | –
C=C1[C@@H](C)[C@H]2[C@H](Cc3ccccc3)NC(=O)[C@]23[C@H](OC(C)=O)/C=C/[C@@](C)(O)C(=O)[C@@H](C)C/C=C/[C@H]3[C@@H]1O [cytochalasin D] | – | accumulate in the nucleus | – | – | – | – | observed | completely dissolved the actin cytoskeleton within one hour | –
C/C1=C/C(=O)O[C@@H]2C[C@@H](CC[C@H](C)/C=C\CC1)O[C@@](O)([C@@H]1CSC(=O)N1)C2 [latrunculin B] | – | – | – | – | – | – | observed | completely dissolved the actin cytoskeleton within one hour | –
CCC(=C/[C@H](C)C/C=C/C(C)=C/[C@@H](C)C(=O)[C@@H](C)[C@H](O)[C@@H](C)C/C(C)=C/C(=O)O)/C=C/[C@@H]1OC(=O)C=C[C@@H]1C [leptomycin B] | – | accumulate in the nucleus | induced CRP2 accumulation in the nucleus | – | – | – | – | – | 82%
